{"source": "patent US6566081B1", "about": "“Methods of identifying a compound which modulates the non-transcriptional non-map-kinase induced effects of steroid hormones” (The Brigham and Women's Hospital, Inc., priority 1999, dated 2003)", "key": {"[1]": {"tested_on": "eNOS", "test": "eNOS activity assay (conversion of [3H]-arginine to [3H]-citrulline) in treated human endothelial cells", "assay_type": "cell-based", "conditions": "for effect on E2-stimulated eNOS activity, later phase (≥15 min) or 30 min / time after stimulation at which PI3-kinase/eNOS activity is stimulated: E2 10 nM; for effect on E2-stimulated eNOS activity, later phase (≥15 min) or 30 min: wortmannin 30 nM, ICI 10 μM, genistein 50 μM, PD98059 5 μM, actinomycin D 2 h pretreatment; for effect on basal eNOS activity, substance alone: no E2; for time after stimulation at which PI3-kinase/eNOS activity is stimulated / stimulation of eNOS activity by the substance alone: insulin 100 nM; for stimulation of eNOS activity by the substance alone: E2/αE2 10 nM", "description": "Fetal bovine serum was deprived of estrogen by charcoal-stripping. Once grown to confluence the cells were replated on 1.5% gelatin-coated flasks at 20000 cells/cm^2. […] Cell number was assessed by direct cell counting of adherent cells, after trypsin detachment, in a Neubauer hemocytometer (VWR Scientifics). The percentage of cells excluding Trypan Blue after staining with the compound was taken as a measure of cell viability.\nEndothelial cells were grown to confluence on 55 cm^2 culture dishes, treated according to the indicated conditions, and harvested in ice-cold PBS containing 1 mM EDTA. The cell lysates were pelleted in a microfuge (2 minutes, 13000 rpm, 4° C.) and subsequently homogenized in a buffer containing 25 mM Tris-HCl, pH 7.4, 1 mM EDTA, 1 mM EGTA. eNOS activity was determined by measuring the conversion of [^3H]-arginine to [^3H]-citrulline. Rat cerebellum extracts, containing elevated amounts of neuronal NOS, were used as positive controls, while endothelial cell extracts incubated in the presence of the competitive eNOS inhibitor L-NAME (1 mM) served as negative controls.\nHuman and bovine aortic endothelial cells were harvested enzymatically with Type IA collagenase (1 mg/mL)."}, "[2]": {"tested_on": "Akt/PKB", "test": "Immunoblotting of Akt phosphorylation (Thr 308, Ser 473)", "assay_type": "cell-based, human", "description": "(§1) After the different treatments, serum-starved endothelial cells were rinsed once with ice-cold PBS before addition of the lysis buffer (100 mM Tris-HCl, pH 6.8, 4% SDS, 20% glycerol, 1 mM sodium orthovanadate, 1 mM NaF, and 1 mM phenylmethylsulfonylfluoride) to the dishes on an ice tray. The cell lysates were scraped, boiled, and centrifuged for 2 min at 13000 rpm. Total cell lysates (40 μg of protein) and low range molecular weight markers (BIO-RAD, Hercules, Calif.) were separated by SDS-polyacrylamide gel electrophoresis (12% running, 4% stacking), electrophoretically transferred to polyvinylidene fluoride membranes (Immobilon P, 0.45 μm pore size) and incubated overnight at 4° C. with blocking solution (5% skim milk in TBS—0.1% Tween 20). Affinity-purified rabbit antibodies (0.4 μg of IgG/ml) vs. Akt, (Ser 473) phospho-Akt or (Thr 308) phospho-Akt (New England BioLabs, Beverly, Mass.), Erk1/2, (Tyr 204) phospho-Erk-1/-2 (Calbiochem, San Diego, Calif.) were incubated with the membranes overnight at 4° C. in TBS—0.1% Tween 20 containing 5% BSA. The blots were washed three times with TBS—0.1% Tween 20 and then treated with donkey anti-rabbit antibody (1:4000 dilution) coupled to horseradish peroxidase. Immunodetection was accomplished using the enhanced chemoluminescence kit (ECL Kit, Amersham Corp.)."}, "[3]": {"tested_on": "PtdIns-3,4,5-P3", "test": "Endogenous PtdIns-3,4,5-P3 levels in non-transfected human endothelial cells", "assay_type": "cell-based", "conditions": "E2 10 nM, insulin 100 nM"}, "[4]": {"tested_on": "PI3K", "test": "p-Tyr- and IRS-1-associated PI3K activity (immunoprecipitate)", "assay_type": "cell-based, human", "conditions": "p-Tyr and IRS-1 immunoprecipitate"}, "[5]": {"tested_on": "ERK 1 and 2", "test": "Immunoblotting of ERK 1/2 phosphorylation", "assay_type": "cell-based, human", "conditions": "E2 10 nM, from 2 minutes", "description": "as §1"}, "[6]": {"tested_on": "mouse cremaster muscle venules", "test": "Model of vascular injury: ischemia and reperfusion in the mouse cremaster muscle (leukocyte rolling and adhesion)", "assay_type": "in vivo", "conditions": "mice with 1.5 mg slow-release E2 tablets s.c.", "description": "(§2) Mice were anesthetized and the cremaster muscle was studied under intravital microscopy^28. Ischemia was induced by applying pressure to supplying arteries just sufficient to stop blood flow for 30 min. In some experiments, wortmannin (100 nM) or L-NAME (0.1 mM) was applied to the cremaster muscle during the ischemic period. The pressure was released for reperfusion, and the same vessels were recorded in each animal before and after I/R. The rolling velocities of 25 leukocytes were measured in each venule; sorted and averaged for each rank to construct cumulative histograms. The velocities of 3,750 leukocytes were measured in 150 venules before and after I/R. The number of firmly adherent leukocytes was measured before and after I/R in the same 200 μm long segments of venules."}, "[7]": {"molecular_target": "T1, eNOS (Mus musculus, UniProt P70313)", "T1 construct": "from tissue; host or cells: cremaster muscle of male C57BL/6 mice", "T1 sequence (P70313 2-1202)": "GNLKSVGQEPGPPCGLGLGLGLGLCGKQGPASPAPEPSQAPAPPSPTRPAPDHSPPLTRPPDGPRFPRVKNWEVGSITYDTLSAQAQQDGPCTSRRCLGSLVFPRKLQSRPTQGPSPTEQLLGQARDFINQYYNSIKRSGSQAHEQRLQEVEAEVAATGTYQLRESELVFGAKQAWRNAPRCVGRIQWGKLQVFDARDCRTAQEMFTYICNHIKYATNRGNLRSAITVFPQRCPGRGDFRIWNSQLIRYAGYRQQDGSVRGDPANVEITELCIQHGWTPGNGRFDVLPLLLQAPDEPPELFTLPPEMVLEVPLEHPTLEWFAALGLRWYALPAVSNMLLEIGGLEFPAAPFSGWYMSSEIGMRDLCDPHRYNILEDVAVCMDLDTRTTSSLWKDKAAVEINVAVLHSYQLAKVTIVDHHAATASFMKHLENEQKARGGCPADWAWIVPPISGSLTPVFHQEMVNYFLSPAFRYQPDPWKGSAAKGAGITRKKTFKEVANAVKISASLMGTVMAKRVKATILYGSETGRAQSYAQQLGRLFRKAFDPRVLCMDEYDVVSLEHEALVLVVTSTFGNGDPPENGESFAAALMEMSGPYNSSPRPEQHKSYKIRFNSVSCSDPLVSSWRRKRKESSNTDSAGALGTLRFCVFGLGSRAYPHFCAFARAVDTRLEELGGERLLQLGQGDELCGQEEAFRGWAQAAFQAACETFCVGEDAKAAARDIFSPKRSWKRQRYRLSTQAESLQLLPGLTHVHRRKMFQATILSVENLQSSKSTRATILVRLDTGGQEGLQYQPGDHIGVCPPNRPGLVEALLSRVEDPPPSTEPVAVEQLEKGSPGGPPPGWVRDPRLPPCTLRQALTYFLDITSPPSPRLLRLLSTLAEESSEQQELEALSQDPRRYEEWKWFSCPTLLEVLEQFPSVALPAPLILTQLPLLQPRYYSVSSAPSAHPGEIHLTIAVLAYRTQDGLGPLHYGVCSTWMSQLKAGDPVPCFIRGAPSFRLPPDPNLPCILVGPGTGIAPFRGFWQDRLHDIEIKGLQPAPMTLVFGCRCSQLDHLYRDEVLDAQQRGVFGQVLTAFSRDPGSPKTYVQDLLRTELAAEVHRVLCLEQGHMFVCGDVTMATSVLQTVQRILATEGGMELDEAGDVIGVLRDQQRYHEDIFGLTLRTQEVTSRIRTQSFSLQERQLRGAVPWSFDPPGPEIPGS", "test": "Cremaster eNOS activity in mice", "assay_type": "in vivo", "conditions": "mice with 1.5 mg slow-release E2 tablets s.c.", "description": "as §2, with “venules. The following number of venules were studies for leukocyte adhesion: Untreated, 15 venules; E2-treated, 20 venules; E2-treated with wortmannin, 25 venules; E2-treated with L-NAME, 15 venules. Cremaster eNOS activity was measured in 3 untreated, 4 E2-treated, 5 E2-treated with wortmannin, and 4 E2-treated with L-NAME mice.” for “venules.”"}, "[8]": {"test": "Serum E2 level in mice implanted with E2 tablets", "assay_type": "in vivo, mouse", "conditions": "mice implanted s.c. with 1.5 mg slow-release E2 tablets, 3-5 days"}, "[9]": {"tested_on": "eNOS", "test": "E2-stimulated eNOS activity in transfected murine fibroblasts", "conditions": "murine fibroblasts transfected with ERα and eNOS cDNAs"}, "[10]": {"conditions": "E2/αE2 10 nM, insulin 100 nM, 20 min"}}, "note": "pEC50: −log10 of the molar value. Where “and” joins values, the source holds several entries; their conditions need not be identical. Identical values can stand only once. Entries after “also recorded” stand apart in the source; their conditions may differ.", "data": [{"compound": "C[C@]12CC[C@@H]3c4ccc(O)cc4C[C@@H](CCCCCCCCC[S+]([O-])CCCC(F)(F)C(F)(F)F)[C@H]3[C@@H]1CC[C@@H]2O", "note": "(stereo partly shown) [ICI 187,780]", "values": [{"measurement": "effect on E2-stimulated eNOS activity, later phase (≥15 min) or 30 min", "setting": "[1]", "result": "complete blockade; also recorded: completely blocked"}, {"measurement": "effect on E2-stimulated eNOS activity, later phase (≥15 min) or 30 min", "setting": "[1]; listed as ICI 182,780", "result": "completely blocked"}, {"measurement": "effect on basal eNOS activity, substance alone", "setting": "[1]", "result": "neither wortmannin nor ICI 187,780 alone affected basal eNOS activity"}, {"measurement": "effect on basal eNOS activity, substance alone", "setting": "[1]; listed as ICI 182,780", "result": "did not produce any effect"}, {"measurement": "effect on E2-induced Akt Ser 473 phosphorylation", "setting": "[2]; ICI 10 μM, wortmannin 30 nM", "result": "not inhibited"}, {"measurement": "effect on E2-induced Akt Thr 308 phosphorylation", "setting": "[2]; ICI 10 μM, wortmannin 30 nM", "result": "blocked"}]}, {"compound": "insulin: known activator of the PI3-kinase/Akt pathway", "values": [{"measurement": "time after stimulation at which PI3-kinase/eNOS activity is stimulated", "setting": "[1]", "result": "≤ 2", "unit": "min"}, {"measurement": "stimulation of eNOS activity by the substance alone", "setting": "[1]; 30 min", "result": "marked increase; also recorded: able to stimulate"}, {"measurement": "stimulation of eNOS activity by the substance alone", "setting": "[1]; 30 min, listed as Insulin", "result": "activates eNOS activity"}, {"measurement": "endogenous PtdIns-3,4,5-P3 levels", "setting": "[3]", "result": "rapidly increased"}, {"measurement": "p-Tyr- or IRS-1-associated PI3K activity", "setting": "[4]", "result": "increases"}]}, {"compound": "17β-estradiol [E2]", "values": [{"measurement": "lowest concentration increasing eNOS activity", "setting": "[1]; 30 min treatment of HSVEC", "result": 10, "unit": "pM"}, {"measurement": "pEC50", "setting": "[1]; E2 10 pM-1 μM, 30 min, human endothelial cells, read-out: EC50 value for increase in eNOS activity", "result": "~10.00 and 10.00"}, {"measurement": "time after stimulation at which PI3-kinase/eNOS activity is stimulated", "setting": "[1]", "result": "> 15", "unit": "min"}, {"measurement": "stimulation of eNOS activity by the substance alone", "setting": "[1]; 30 min", "result": "increases eNOS activity; also recorded: biphasic increase in eNOS activity; also recorded: marked increase"}, {"measurement": "time of maximum effect on PI3-kinase and eNOS activity", "setting": "[1]; after stimulation", "result": "15 to 20", "unit": "min"}, {"measurement": "Akt Ser 473 phosphorylation", "setting": "[2]; [10]", "result": "hyperphosphorylated after 20 minutes"}, {"measurement": "Akt threonine (Thr 308) phosphorylation", "setting": "[2]; [10]", "result": "phosphorylated after 20 minutes; also recorded: increase in Akt phosphorylation"}, {"measurement": "phosphorylation of ERK 1 and 2", "setting": "[5]", "result": "increased phosphorylation"}, {"measurement": "endogenous PtdIns-3,4,5-P3 levels", "setting": "[3]", "result": "increased"}, {"measurement": "p-Tyr- or IRS-1-associated PI3K activity", "setting": "[4]", "result": "did not increase"}, {"measurement": "changes in leukocyte accumulation and rolling velocity following I/R", "setting": "[6]", "result": "prevented"}, {"measurement": "increase in eNOS activity in cremaster muscle", "setting": "[7]", "result": 3.2, "unit": "fold"}, {"measurement": "serum E2 level", "setting": "[8]", "result": "760 ± 30", "unit": "pg/mL"}, {"measurement": "increase in eNOS activity, wild-type fibroblasts", "setting": "[9]", "result": 8, "unit": "fold"}]}]}
